We go through two compounds from ChEMBL document CHEMBL1152010, “Synthesis of new amide-linked N-hydroxyurea 5-lipoxygenase inhibitors by an intramolecular oxygen to nitrogen acyl transfer” (Bioorg Med Chem Lett, 1993).

Series [1] is described as follows: Half life after oral dosing in rats. In kind it is ADME, organism-based. The conditions noted are these: rat, in vivo.
For another series, the species on record is Homo sapiens. Description: Tested for the inhibition of leukotriene biosynthesis in human whole blood. In kind it is functional.

A word on the half-life: it is the time in which the quantity being followed falls by half. The term IC50 denotes the point on the concentration scale where inhibition reaches its midpoint. `NC(=O)N(O)CCNC(=O)c1cccc(Oc2ccccc2)c1`: the half-life in series [1] is 3.6 h. It took 230 nM to reach half-maximal inhibition in the series listed under Homo sapiens (IC50).
`NC(=O)N(O)C/C=C/c1cccc(Oc2ccccc2)c1` gave a half-life in series [1] of 1.5 h. The compound also returned an IC50 in the series filed under Homo sapiens of 90 nM.
